Reference: patent US20090082355A1, “Method of Combating Root Weevils” (BASF SE, priority 2006, published 2009)

Legend:
Assay type in all cases: in vivo, Otiorhynchus sulcatus (black vine weevil)
[1] = tested on: Otiorhynchus sulcatus; assay: Control of Otiorhynchus sulcatus eggs/first instar larvae on the Spreading Yew (treated potting medium); settings: DC formulation, Taxus media densiformis, 25 eggs per plant, live larvae recorded after 3 months
Method: Taxus media densiformis plants were planted in potting medium (60% parts pine bark, 20% hardwood bark and 20% peat) which had been treated before with a DC formulation of the active ingredient diluted with water. Plants were maintained outdoors under standard nursery management conditions throughout the growing season. Incubated vine weevil eggs were obtained from a culture of field-collected adults. Plants were infested with 25 brown eggs each. The total number of live larvae was recorded after 3 months. Each experiment was replicated 5 times.

[2] = tested on: Otiorhynchus sulcatus; assay: Control of Otiorhynchus sulcatus larvae in the woody ornamental Thuja occidentalis 'Holmstrub' (pot trial); settings: for Average feeding on roots: method B, index 1 no feeding observed to 4 most roots are damaged; for Average number of total larvae: treatment method B (drench), 20 eggs per pot, approx. 8 months after treatment
Method: Root cuttings of Thuja occidentalis ‘Holmstrub’ were potted in 3-liter containers using a standard soil substrate and first placed on an outdoor container field for four months and then transferred to an indoor container field at a temperature of 15-20° C. for another four months. In treatment method A, 750 g Suscon (chloropyrifos)/m^3 were mixed through the soil substrate. In treatment method B, the calculated amount of product was dissolved in 0.75 l water and added to the 3 litre pot as a drench. The soil of the pot was moistened before application. Eggs of Otiorhynchus sulcatus (20 eggs per pot) were added to the pots 15 weeks after treatment. Approximately 8 months after treatment, the average total number of live larvae (hereinafter also referred to as “average of total larvae”) and the average feeding on the roots were determined. The feeding on the roots was assessed according to the following index rating:
1 no feeding observed 2 slight feeding 3 significant feeding, few root tips are present 4 most roots are damaged
Each experiment was replicated 4 times.

[3] = tested on: Otiorhynchus sulcatus; assay: Control of Otiorhynchus sulcatus adults on Euonymus fortunei 'Dart's Blanket': contact effect; settings: 20° C.
Method: (§1) The efficacy of different doses of compound I-1 to control adults of the black vine weevil (Otiorhynchus sulcatus) was tested after direct contact and after feeding of the product. The formulated product was dissolved in water and the resulting aqueous solution/suspension was applied to black vine weevil adults directly or to Euonymus fortunei branches and the branches were exposed to black vine weevil adults.
The treatments were applied by spraying 10 black vine weevils per petri-dish. The vine weevils were completely moistened after spraying. Afterwards the vine weevils were put into a bucket, in which 5 untreated branches of Euonymus fortunei ‘Dart's Blanket’ were placed. The buckets were randomly placed on Danish lorries in a climate cell. After 1 and 5 days, the number of dead vine weevils was counted. The climate cell was adjusted at a constant temperature of 20° C. with 16 hours of light and 8 hours of darkness. Each treatment was replicated 4 times.

[4] = tested on: Otiorhynchus sulcatus; assay: Control of Otiorhynchus sulcatus adults on Euonymus fortunei 'Dart's Blanket': feeding effect; settings: 10 untreated weevils, 20° C.
Method: as §1
4 plants of Euonymus fortunei ‘Dart's Blanket’ per treatment were sprayed until drip stadium. 10 untreated black vine weevils were put in a bucket in which 5 treated branches were placed. The buckets were randomly placed on Danish lorries in a climate cell. After 5 and 10 days the number of dead vine weevils were counted. The climate cell was adjusted at a constant temperature of 20° C. with 16 hours of light and 8 hours of darkness. Each treatment was replicated 4 times.

[5] = 1.14 g a.i./l sprayed on 10 weevils
[6] = 2.27 g a.i./l sprayed on 10 weevils
[7] = 4.56 g a.i./l sprayed on 10 weevils
[8] = branches sprayed with 1.14 g a.i./l
[9] = branches sprayed with 2.27 g a.i./l
[10] = branches sprayed with 4.56 g a.i./l

SMILES: CCNC(=NNc1c(Cl)cc(C(F)(F)F)cc1Cl)C1(C)CC1(Cl)Cl (stereo not drawn) [Compound I-1, N-Ethyl-2,2-dichloro-1-methylcyclopropane-carboxamide-2-(2,6-dichloro-α,α,α-trifluoro-p-tolyl)hydrazone]
- control ([1]; rate 250 ppm in potting medium): over 95%
- control ([1]; rate 750 ppm in potting medium): over 95%
- control ([1]; rate 1500 ppm in potting medium): over 95%
- Average feeding on roots ([2]; 0.9125 g or ml product/3 l pot): 1.1
- Average number of total larvae ([2]; 0.9125 g or ml product/3 l pot): 0.1
- Average feeding on roots ([2]; 1.825 g or ml product/3 l pot): 1.0
- Average number of total larvae ([2]; 1.825 g or ml product/3 l pot): 0.0
- Average feeding on roots ([2]; 3.65 g or ml product/3 l pot): 1.0
- Average number of total larvae ([2]; 3.65 g or ml product/3 l pot): 0.0
- phytotoxicity ([2]; Thuja occidentalis 'Holmstrub' pot trial): no signs of phytotoxicity
- efficacy against the larvae (in words) ([2]; all treatments in different doses): effective against the larvae of Otiorhynchus sulcatus
- control of larvae and feeding damage compared with the standard treatment ([2]; versus Suscon (chloropyrifos)): better control of Otiorhynchus sulcatus larvae and feeding damage than the standard treatment of Suscon (chloropyrifos)
- Average number of dead adults after 1 day [3, 5]: 0.5
- Average number of dead adults after 5 days [3, 5]: 6.0
- Average number of dead adults after 1 day [3, 6]: 0.3
- Average number of dead adults after 5 days [3, 6]: 9.0
- Average number of dead adults after 1 day [3, 7]: 0.8
- Average number of dead adults after 5 days [3, 7]: 8.5
- Average number of dead adults after 5 days [4, 8]: 8.5
- Average number of dead adults after 10 days [4, 8]: 10.0
- Average number of dead adults after 5 days [4, 9]: 6.5
- Average number of dead adults after 10 days [4, 9]: 8.8
- Average number of dead adults after 5 days [4, 10]: 8.8
- Average number of dead adults after 10 days [4, 10]: 10.0
